# Measured values published in patent publication US20060280723A1 (priority 2003, published 2006).
# Read-outs that look alike come from different tables or passages of the source.
# Key:
# SARS-HCoV [1] = conditions: Lee et al., 2003 and Poutanen et al.; cited from earlier work
# SARS-HCoV [2] = conditions: literature; cited from earlier work
# Vero E6 cells [3] = assay: Cytotoxicity on Vero E6 cells without viral challenge; type: cell-based, African Green Monkey; conditions: three days, inverted microscope
# Protocol: To determine cytotoxicity, 100 microlitres of serial 10-fold dilutions of each treatment were incubated with 100 microlitres of Vero E6 cells giving a final cell count of 20,000 cells per well in a 96-well plate, without viral challenge.
# SARS-HCoV 2003VA2774 = type: cell-based, SARS human coronavirus (SARS-HCoV)
# Semliki Forest Virus = assay: Protection of Vero E6 cells from Semliki Forest Virus cytopathic effect (crystal violet); type: cell-based, Semliki Forest Virus (SFV)
# Protocol: Vero E6 cells were seeded in 96-well plate, at a density of 10000 cells per well. […] Media was removed from cells, and cells were washed in 1× PBS, then fixed for 10 minutes at room temperature in 4% paraformaldehyde in PBS. Paraformaldehyde was removed and cells were stained with 0.2% crystal violet in 2% ethanol for 10 minutes at room temperature. Stained plates were washed and degree of colouration was quantified at 630 nm using an ELISA reader. Triplicate data is presented in graph format (FIG. 2).
# [4] = tested on: SARS-HCoV, strain Frankfurt-1
# Vero E6 cells [5] = tested on: Vero E6 cells
# [6] = tested on: 'common cold' coronaviruses; conditions: laboratory tests; cited from earlier work
# [7] = 10^4 pfu/well, MOI 0.5, Vero E6 cells
molecule,measurement,setting,value
CCOC(=O)C1=C[C@@H](OC(CC)CC)[C@H](NC(C)=O)[C@@H](N)C1 [Oseltamivir],Therapeutic benefit in SARS-HCoV infection,SARS-HCoV [1],has not shown any therapeutic benefit
NC(=O)c1ncn([C@@H]2O[C@H](CO)[C@@H](O)[C@H]2O)n1 [Ribavirin],Efficacy against SARS-HCoV in vitro,SARS-HCoV [2],negative results
same,Cytotoxicity at inhibitory concentration,Vero E6 cells [3],showed cytotoxicity
same,CIA100 (reached: Yes),SARS-HCoV 2003VA2774; [7],Yes
same,Concentration at which complete cytopathic effect,SARS-HCoV 2003VA2774; [7],"5,000 μg/ml"
same,Inhibition of cytopathic effect,"SARS-HCoV 2003VA2774; cytopathic endpoint assay, Vero E6 cells",inhibitory activity at all viral titres
same,Inhibition of cytopathic effect,"SARS-HCoV 2003VA2774; high viral challenge 10^4 pfu/well, MOI 0.5",Complete inhibition
same,CIA100 (concentration inhibiting cytopathic effect in all four set-ups),SARS-HCoV 2003VA2774; virus load 100 pfu/well,500 µg/mL
same,CIA100 (concentration inhibiting cytopathic effect in all four set-ups),"SARS-HCoV 2003VA2774; virus load 1,000 pfu/well","5,000 μg/ml"
Intron A: recombinant alpha IFN product from Schering Plough (IFN-alpha 2b),Loss of protection,Semliki Forest Virus; at 39 IU/ml,equivalent loss of protection
same,Degree of protection,Semliki Forest Virus; at 625 IU/ml,same degree of protection
same,"IC50 Exp. Type 1, 10 TCID50",[4],>3.125 IU/ml
same,"IC50 Exp. Type 1, 100 TCID50",[4],>3.125 IU/ml
same,"IL50 Exp. Type 2, 10 TCID50",[4],>3.125 IU/ml
same,"IL50 Exp. Type 2, 100 TCID50",[4],>3.125 IU/ml
same,Tendency to increase baseline levels in the cytotoxicity assay,Vero E6 cells [5],no similar tendency
same,Concentration up to which cells were not fully protected from SARS-HCoV infection,SARS-HCoV 2003VA2774,> 100000 IU/ml
same,Inhibition of cytopathic effect,SARS-HCoV 2003VA2774,did not show significant inhibition
"Cystatin C: a protease inhibitor found in human blood (protein, UniProt P01034 27-146, looked up) Cystatin-C: SSPGKPPRLVGGPMDASVEEEGVRRALDFAVGEYNKASNDMYHSRALQVVRARKQIVAGVNYFLDVELGRTTCTKTQPNLDNCPFHDQPHLKRKAFCSFQIYAVPWQGTMTLSKSTCQDA",Replication of 'common cold' coronaviruses,[6],found to block replication
